Reference: patent publication US8802597B2, “Herbicidal pyrimidines” (E I du Pont de Nemours and Company, priority 2003, dated 2014)
Read-outs that look alike come from different tables or passages of the source.

Columns and labels:
Assay type in all cases: in vivo
[1] = tested on: giant foxtail (Setaria faberii); test: Test C pre/postemergence; conditions: Setaria faberi; for pest or weed control at 125 g/ha: 125 g ai/ha; for pest or weed control at 31 g/ha: 31 g ai/ha; for pest or weed control at 62 g/ha: 62 g ai/ha; for pest or weed control at 250 g/ha: 250 g ai/ha; for pest or weed control at 500 g/ha: 500 g ai/ha
In short: (§1)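 Pre: seeds planted, sprayed same day. Post: 1- to 4-leaf plants (2–18 cm). Formulation: non-phytotoxic solvent + surfactant. Greenhouse 12–14 d; visual % control vs untreated, 0–100.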

[2] = tested on: goosegrass (Eleusine indica); test: Test C pre/postemergence; conditions: Eleusine indica; for pest or weed control at 31 g/ha: 31 g ai/ha; for pest or weed control at 62 g/ha: 62 g ai/ha; for pest or weed control at 125 g/ha: 125 g ai/ha; for pest or weed control at 250 g/ha: 250 g ai/ha; for pest or weed control at 500 g/ha: 500 g ai/ha
In short: as §1

[3] = tested on: lambsquarters (Chenopodium album); test: Test C pre/postemergence; conditions: Chenopodium album; for pest or weed control at 31 g/ha: 31 g ai/ha; for pest or weed control at 62 g/ha: 62 g ai/ha; for pest or weed control at 125 g/ha: 125 g ai/ha; for pest or weed control at 250 g/ha: 250 g ai/ha; for pest or weed control at 500 g/ha: 500 g ai/ha
In short: as §1

[4] = tested on: velvetleaf (Abutilon theophrasti); test: Test C pre/postemergence; conditions: Abutilon theophrasti; for pest or weed control at 31 g/ha: 31 g ai/ha; for pest or weed control at 62 g/ha: 62 g ai/ha; for pest or weed control at 125 g/ha: 125 g ai/ha; for pest or weed control at 250 g/ha: 250 g ai/ha; for pest or weed control at 500 g/ha: 500 g ai/ha
In short: as §1

[5] = tested on: chickweed (Stellaria media); test: Test C postemergence; conditions: Stellaria media, post-emergence; for pest or weed control at 62 g/ha: 62 g ai/ha; for pest or weed control at 125 g/ha: 125 g ai/ha; for pest or weed control at 250 g/ha: 250 g ai/ha
In short: as §1

[6] = post-emergence, Postemergence, scale 0 to 100 (0 no effect, 100 complete control), read-out: Foxtail, Giant plant response rating
[7] = post-emergence, Postemergence, scale 0 to 100, read-out: Plant response rating, Foxtail, Giant
[8] = pre-emergence, Preemergence, scale 0 to 100, 0 no effect, 100 complete control, read-out: Plant response rating, Foxtail, Giant
[9] = pre-emergence, Preemergence, scale 0 to 100, read-out: Plant response rating, Foxtail, Giant
[10] = post-emergence, Postemergence, scale 0 to 100 (0 no effect, 100 complete control), read-out: Goosegrass plant response rating
[11] = post-emergence, Postemergence, scale 0 to 100, read-out: Plant response rating, Goosegrass
[12] = pre-emergence, Preemergence, scale 0 to 100, 0 no effect, 100 complete control, read-out: Plant response rating, Goosegrass
[13] = pre-emergence, Preemergence, scale 0 to 100, read-out: Plant response rating, Goosegrass
[14] = post-emergence, Postemergence, scale 0 to 100 (0 no effect, 100 complete control), read-out: Lambsquarters plant response rating
[15] = post-emergence, Postemergence, scale 0 to 100, read-out: Plant response rating, Lambsquarters
[16] = pre-emergence, Preemergence, scale 0 to 100, 0 no effect, 100 complete control, read-out: Plant response rating, Lambsquarters
[17] = pre-emergence, Preemergence, scale 0 to 100, read-out: Plant response rating, Lambsquarters
[18] = post-emergence, Postemergence, scale 0 to 100 (0 no effect, 100 complete control), read-out: Velvetleaf plant response rating
[19] = post-emergence, Postemergence, scale 0 to 100, read-out: Plant response rating, Velvetleaf
[20] = pre-emergence, Preemergence, scale 0 to 100, 0 no effect, 100 complete control, read-out: Plant response rating, Velvetleaf
[21] = pre-emergence, Preemergence, scale 0 to 100, read-out: Plant response rating, Velvetleaf
[22] = scale 0 to 100 (0 no effect, 100 complete control), read-out: Chickweed plant response rating
[23] = scale 0 to 100, read-out: Plant response rating, Chickweed

Compound | pest or weed control at 125 g/ha [1, 6] | pest or weed control at 62 g/ha [1, 6] | pest or weed control at 250 g/ha [1, 7] | pest or weed control at 62 g/ha [1, 8] | pest or weed control at 125 g/ha [1, 9] | pest or weed control at 250 g/ha [1, 9] | pest or weed control at 62 g/ha [2, 10] | pest or weed control at 125 g/ha [2, 10] | pest or weed control at 250 g/ha [2, 11] | pest or weed control at 62 g/ha [2, 12] | pest or weed control at 125 g/ha [2, 13] | pest or weed control at 250 g/ha [2, 13] | pest or weed control at 62 g/ha [3, 14] | pest or weed control at 125 g/ha [3, 14] | pest or weed control at 250 g/ha [3, 15] | pest or weed control at 62 g/ha [3, 16] | pest or weed control at 125 g/ha [3, 17] | pest or weed control at 250 g/ha [3, 17] | pest or weed control at 62 g/ha [4, 18] | pest or weed control at 125 g/ha [4, 18] | also measured
CCOC(=O)c1nc(C2CC2)nc(N)c1F [Compound 30] | 0% | 0% | 40% | 0% | 20% | 60% | 0% | 0% | 0% | 30% | 35% | 50% | 60% | 80% | 90% | 80% | 85% | 90% | 10% | 60% | pest or weed control at 31 g/ha ([1]; post-emergence, Postemergence, read-out: Plant response rating (scale of 0 to 100), Foxtail, Giant): 0%; pest or weed control at 31 g/ha [1, 8]: 0%; pest or weed control at 31 g/ha ([2]; post-emergence, Postemergence, read-out: Plant response rating (scale of 0 to 100), Goosegrass): 0%; pest or weed control at 31 g/ha [2, 12]: 0%; pest or weed control at 31 g/ha ([3]; post-emergence, Postemergence, read-out: Plant response rating (scale of 0 to 100), Lambsquarters): 50%; pest or weed control at 31 g/ha [3, 16]: 0%; pest or weed control at 31 g/ha ([4]; post-emergence, Postemergence, read-out: Plant response rating (scale of 0 to 100), Velvetleaf): 10%; pest or weed control at 250 g/ha [4, 19]: 60%; pest or weed control at 31 g/ha [4, 20]: 0%; pest or weed control at 62 g/ha [4, 20]: 10%; pest or weed control at 125 g/ha [4, 21]: 15%; pest or weed control at 250 g/ha [4, 21]: 50%; pest or weed control at 31 g/ha ([5]; 31 g ai/ha, read-out: Plant response rating (scale of 0 to 100), Chickweed): 40%; pest or weed control at 62 g/ha [5, 22]: 50%; pest or weed control at 125 g/ha [5, 22]: 65%; pest or weed control at 250 g/ha [5, 23]: 85%
Nc1nc(C2CC2)nc(C(=O)O)c1Br [Compound 8] | 60% | 40% | 70% | 0% | 0% | 0% | 0% | 0% | 45% | 0% | 0% | 35% | 75% | 100% | 100% | 0% | 20% | 90% | 60% | 70% | pest or weed control at 500 g/ha [1, 7]: 75%; pest or weed control at 500 g/ha [1, 9]: 0%; pest or weed control at 500 g/ha [2, 11]: 60%; pest or weed control at 500 g/ha [2, 13]: 45%; pest or weed control at 500 g/ha [3, 15]: 100%; pest or weed control at 500 g/ha [3, 17]: 100%; pest or weed control at 250 g/ha [4, 19]: 85%; pest or weed control at 500 g/ha [4, 19]: 95%; pest or weed control at 62 g/ha [4, 20]: 65%; pest or weed control at 125 g/ha [4, 21]: 75%; pest or weed control at 250 g/ha [4, 21]: 100%; pest or weed control at 500 g/ha [4, 21]: 100%; pest or weed control at 62 g/ha [5, 22]: 20%; pest or weed control at 125 g/ha [5, 23]: 75%; pest or weed control at 250 g/ha [5, 23]: 95%; pest or weed control at 500 g/ha ([5]; 500 g ai/ha, scale 0 to 100, read-out: Plant response rating, Chickweed): 100%
